In patent publication US10233182B2, “Substituted spirocyclic inhibitors of autotaxin” (X-Rx, Inc., priority 2014, dated 2019):
pIC50: −log10 of the molar value.

Target: Autotaxin (Homo sapiens (Human), UniProt Q13822)
Assay: Autotaxin LPC Cascade Assay
Assay type: biochemical
Conditions: Autotaxin 5 nM, LPC 100 μM, choline oxidase/HRP/Ampliflu Red fluorescence read-out, 2% DMSO, RT; read-out: IC50 ATX Activity
In short: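 Choline liberated from LPC by autotaxin during 1 h, after a 10-min RT compound preincubation, was converted through choline oxidase/HRP to a fluorescent Ampliflu Red product.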

SMILES | pIC50
CC(C)[C@@H](NC(=O)c1cc(C(F)(F)F)ccc1F)C(=O)N1CCC2(CC1)C(=O)N(C)C(=O)N2c1ccc(Cl)c(Cl)c1 [Example 183, (R)—N-(1-(1-(3,4-Dichlorophenyl)-3-methyl-2,4-dioxo-1,3,8-triazaspiro[4.5]decan-8-yl)-3-methyl-1-oxobutan-2-yl)-2-fluoro-5-(trifluoromethyl)benzamide] | > 6.30
CC(C)[C@@H](NC(=O)c1cc(C(F)(F)F)ccc1F)C(=O)N1CCC2(CC1)C(=O)N(C)C(=O)N2c1ccc2c(c1)OCCN2 [Example 21, (R)—N-(1-(1-(3,4-Dihydro-2H-benzo[b][1,4]oxazin-7-yl)-3-methyl-2,4-dioxo-1,3,8-triazaspiro[4.5]decan-8-yl)-3-methyl-1-oxobutan-2-yl)-2-fluoro-5-(trifluoromethyl)benzamide] | > 6.30
CC(C)[C@@H](NC(=O)c1cc(C(F)(F)F)ccc1F)C(=O)N1CCC2(CC1)C(=O)N(C)C(=O)N2Cc1cccc(S(C)(=O)=O)c1 [Example 103, (R)-2-Fluoro-N-(3-methyl-1-(3-methyl-1-(3-(methylsulfonyl)benzyl)-2,4-dioxo-1,3,8-triazaspiro[4.5]decan-8-yl)-1-oxobutan-2-yl)-5-(trifluoromethyl)benzamide] | 6.00 to 6.30
CCc1ccc(F)c(C(=O)N[C@@H](C(=O)N2CCC3(CC2)C(=O)N(C)CN3c2ccc(OCC(=O)O)cc2)C(C)C)c1 [Example 168, (R)-2-(4-(8-(2-(5-Ethyl-2-fluorobenzamido)-3-methylbutanoyl)-3-methyl-4-oxo-1,3,8-triazaspiro[4.5]decan-1-yl)phenoxy)acetic Acid] | > 6.30
CC(C)[C@@H](NC(=O)c1cc(C(F)(F)F)ccc1F)C(=O)N1CCC2(CC1)C(=O)N(C)C(=O)N2C(C)c1ccccc1 (stereo partly drawn) [Example 92, 2-Fluoro-N-((2R)-3-methyl-1-(3-methyl-2,4-dioxo-1-(1-phenylethyl)-1,3,8-triazaspiro[4.5]decan-8-yl)-1-oxobutan-2-yl)-5-(trifluoromethyl)benzamide] | 6.00 to 6.30
Cc1nc2cc(N3C(=O)N(C)C(=O)C34CCN(C(=O)[C@H](NC(=O)c3cc(C(F)(F)F)ccc3F)C(C)C)CC4)ccc2o1 [Example 246, (R)—N-(1-(1-(2-Methylbenzo[d]oxazol-5-yl)-3-methyl-2,4-dioxo-1,3,8-triazaspiro[4.5]decan-8-yl)-3-methyl-1-oxobutan-2-yl)-2-fluoro-5-(trifluoromethyl)benzamide] | > 6.30
CC(C)[C@@H](NC(=O)c1cc(C(F)(F)F)ccc1F)C(=O)N1CCC2(CC1)C(=O)N(C)C(=O)N2Cc1ccc2nccnc2c1 [Example 100, (R)-2-Fluoro-N-(3-methyl-1-(3-methyl-2,4-dioxo-1-(quinoxalin-6-ylmethyl)-1,3,8-triazaspiro[4.5]decan-8-yl)-1-oxobutan-2-yl)-5-(trifluoromethyl)benzamide] | > 6.30
Cc1cccc(C(=O)N[C@@H](C(=O)N2CCC3(CC2)C(=O)N(C)CN3c2ccccc2Cl)C(C)C)c1 [Example 196, (R)—N-(1-(1-(2-Chlorophenyl)-3-methyl-4-oxo-1,3,8-triazaspiro[4.5]decan-8-yl)-3-methyl-1-oxobutan-2-yl)-3-methylbenzamide] | > 6.30
CC(C)[C@@H](NC(=O)c1cc(Cl)cc(C(F)(F)F)c1)C(=O)N1CCC2(CC1)C(=O)N(C)CN2c1ccc(=O)n(C)c1 [Example 207, (R)-3-Chloro-N-(3-methyl-1-(3-methyl-1-(1-methyl-6-oxo-1,6-dihydropyridin-3-yl)-4-oxo-1,3,8-triazaspiro[4.5]decan-8-yl)-1-oxobutan-2-yl)-5-(trifluoromethyl)benzamide] | > 6.30
CN1C(=O)N(Cc2ccc3nccnc3c2)C2(CCN(C(=O)[C@H](NC(=O)c3cc(C(F)(F)F)ccc3F)C3CCC3)CC2)C1=O [Example 110, (R)—N-(1-Cyclobutyl-2-(3-methyl-2,4-dioxo-1-(quinoxalin-6-ylmethyl)-1,3,8-triazaspiro[4.5]decan-8-yl)-2-oxoethyl)-2-fluoro-5-(trifluoromethyl)benzamide] | > 6.30
